Data: patent US20230381139A1, “METHODS OF TREATING AND/OR PREVENTING ALZHEIMER’S DISEASE WITH R-CARVEDILOL” (priority 2020, published 2023)

Legend:
Aβ = Aβ accumulation (immunohistochemical staining and immunoblotting) in 5×FAD+/− mice; type: in vivo, mouse; settings: 5×FAD+/− mice 3-4, 4-5 and 6-7 months old after 1-month treatment with 3.2 mg/kg/day; vs DMSO
Method: Adult genetically engineered mice, 5×FAD^+/− (Oakley et al., 2006), RyR2-E4872Q^+/− (EQ^+/−) (Chen et al., 2014), 5×FAD^+/−/RyR2-E4872Q^+/− (5×FAD^+/−/EQ^+/−), and wildtype (WT) littermates of both sexes were used. R-carvedilol (R-CV) (at doses of 0.8, 1.6 or 3.2 mg/kg/day), racemic carvedilol (3.2 mg/kg/day), and vehicle control (DMSO) were delivered to 5×FAD^+/− mice in drinking water for one month, starting at different ages before (2-3 months old) or after (3-4 months old) the occurrence of AD pathologies (Oakley et al., 2006). To assess the effects of genetically and pharmacologically limiting RyR2 open time on the prevention and rescue of AD deficits in different stages (early, moderate, and late) of AD progression, animals at different ages (from 2-15 months) were used. As reported (Oakley et al., 2006), there was an age-dependence of AD progression in the 5×FAD^+/− mice. No sex-dependent differences in AD progression in these mice was observed. For 2-photon Ca^2+ imaging experiments, 5×FAD, RyR2 WT, and RyR2 mutant mice were cross-bred with the heterozygous Thy1-GCaMP6f transgenic mice (Chen et al., 2012; Chen et al., 2013) (GP5.17, JAX 025393) to express the GCaMP6f Ca^2+ sensing probe (driven by the Thy1 promotor) in hippocampal neurons in each of the genotypes used.
Immunoblotting analysis was carried out using the method described previously (Rosen et al., 2010). […]

Aβ plaques = Aβ plaques (immunohistochemical staining) in 3×TG+/− mice; type: in vivo, mouse; settings: 12-15 months old 3×TG+/− mice, 3.2 mg/kg/day for one month; vs DMSO
Method: Genetically engineered mice of 12-15 months old, 3×TG+/− (Oddo et al., 2003), RyR2-E4872Q+/− (EQ+/−)(Chen et al., 2014), 3×TG+/−/RyR2-E48720+/− (3×TG+/−/EQ+/−), and WT littermates of both sexes were used. Sex differences, which may produce biological variables, were not investigated in this study. R-carvedilol (R-CV) (3.2 mg/kg/day) and vehicle control (DMSO) were delivered to 3×TG+/− mice in drinking water for one month. As shown previously, only heterozygous RyR2-E4872Q+/− mutant mice were produced as homozygous E4872Q+/+mutation is embryonic lethal (Chen et al., 2014). Functional RyR2s are tetrameric channels formed by 4 RyR2 monomers. The heterozygous E4872Q+/− mutant mice (harboring one WT allele and one E4872Q mutant allele) will produce a mixture of homo- and hetero-tetrameric channels that contain the WT, E48720 mutant, or both WT/E4872Q mutant monomers. Thus, the RyR2-E4872Q mutation can exert its negative impact not only on the function of the E4872Q homo-tetramers, but also on the function of the WT monomer in the WT/E4872Q hetero-tetrameric channels.
Mice of different ages and genotypes were anesthetized and transcardially perfused with 10% neutral buffered formalin (NBF). Whole brains were removed and post-fixed in NBF for at least 24 h. The fixed brains were then embedded in paraffin after dehydration and diaphanization. […]

COc1ccccc1OCCNC[C@@H](O)COc1cccc2[nH]c3ccccc3c12 [R-carvedilol, R-(+)-carvedilol]
Aβ accumulation (plaques, total Aβ and Aβ (1-42) levels) (Aβ): without affecting
area of Aβ plaques in the hippocampal region (Aβ plaques): no significant difference
number of Aβ plaques in the hippocampal region (Aβ plaques): no significant difference
